Reference: ChEMBL document CHEMBL4017441, “Mitigating the inhibition of human bile salt export pump by drugs: opportunities provided by physicochemical property modulation, in silico modeling, and structural modification” (Drug Metab Dispos, 2012)

Target: Bile salt export pump (Homo sapiens, UniProt O95342)
Format: ADME

| Structure (SMILES) | IC50 [µM] |
| --- | --- |
| CCCCC(=O)N(Cc1ccc(-c2ccccc2-c2nnn[nH]2)cc1)[C@H](C(=O)O)C(C)C | 31.1 |
| O=C(CCCCC(=O)Nc1c(I)cc(I)c(C(=O)O)c1I)Nc1c(I)cc(I)c(C(=O)O)c1I | > 970 |
| N[C@H](Cc1cc(I)c(Oc2cc(I)c(O)c(I)c2)c(I)c1)C(=O)O | < 10 |
| CCCc1c2nc(C(=O)O)cc(Cl)c2cc2c(=O)cc(C(=O)O)oc12 | > 892 |
| COc1ccc2c(c1OC)C(=O)OC2C1c2cc3c(cc2CCN1C)OCO3 (centres undefined) | 65.6 |
| CC[C@@H](C(N)=O)N1CCCC1=O | > 1000 |
| COC1C(OC(=O)/C=C/C=C/C=C/C=C/C(=O)O)CCC2(CO2)C1C1(C)OC1CC=C(C)C (centres undefined) | 25.6 |
| CN1CCC(OC(c2ccccc2)c2ccccc2)CC1 | 509 |
| O=C(NCC12CC3CC(CC(C3)C1)C2)c1cc(CN2CCNCC2)ccc1Cl | 124 |
| NCC1OC(OC2C(CO)OC(OC3C(O)C(N)CC(N)C3OC3OC(CN)C(O)C(O)C3N)C2O)C(N)C(O)C1O (centres undefined) | > 1000 |
| CNCC(O)c1cccc(O)c1 (centres undefined) | > 1000 |
| C/C=C/C(=O)N(CC)c1ccccc1C | 110 |
| O=C(O)c1cc2cc(O)ccc2n1Cc1ccc(Cl)c(Cl)c1 | 49.8 |
| CCc1cc(CC)c2oc(C(=O)O)cc(=O)c2c1O | 112 |
| Cc1cc2c(cc(C(=O)O)n2Cc2ccc(Cl)c(Cl)c2)o1 | 15.9 |
| CC(=O)NC[C@H]1CN(c2ccc(C(=O)c3cnc4ccc(Cl)cn34)cc2)C(=O)O1 | 27.6 |
| COc1cc2c(Oc3ccc4[nH]c(C)cc4c3F)ncnc2cc1OCCCN1CCCCC1 | 22.7 |
| O=CN(O)C(CCc1ccccn1)CS(=O)(=O)N1CCN(c2ccc(Cl)cn2)CC1 (centres undefined) | < 10 |
| CCC1C(=O)OCC1Cc1cncn1C (centres undefined) | > 1000 |
| Cc1cc(Nc2nc(NCc3cc(-c4ccccn4)no3)ncc2Cl)[nH]n1 | < 10 |
| COc1ccc2cc(C(C)CO)ccc2c1 (centres undefined) | 97.6 to 98 |
| O=C(O)c1cc2scnc2n1Cc1ccc(Cl)c(Cl)c1 | 22.4 |

| Structure (SMILES) | IC50 [µM] |
| --- | --- |
| CC(C)(C)C(=O)CN1CC2CN(CCCNc3ccc(C#N)cc3)CC(C1)O2 | 514 |
| Nc1nc(NCCN2CCOCC2)nc2nc(-c3ccco3)nn12 | > 1000 |
| CCCCCCCC/C=C/CCCCCCCC(=O)OCC(COP(=O)(O)OCC[N+](C)(C)C)OC(=O)CCCCCCC/C=C/CCCCCCCC (centres undefined) | < 16 |
| COc1c(C(=O)O)n(Cc2ccc(Cl)c(Cl)c2)c2ccc(O)cc12 | 39.6 |
| CC(=O)NC[C@H]1CN(c2cc(F)c(C3=CCN(C(=O)CO)CC3)c(F)c2)C(=O)O1 | > 1000 |
| O=CN(O)C(CCc1ccccc1)CS(=O)(=O)N1CCN(c2ccc(Cl)cn2)CC1 (centres undefined) | < 10 |
| CC(=O)NC[C@H]1CN(c2ccc(-n3cnc(Br)c3)c(F)c2)C(=O)O1 | 349 |
| CCCc1ccc(OCC(C)O)c2c(=O)cc(C(=O)O)oc12 (centres undefined) | 271 |
| CCCc1c(OCCCOc2ccc3c(=O)cc(CCC(=O)O)oc3c2CCC)ccc(C(C)=O)c1O | < 10 |
| CCCC(=O)c1cnc2c(OCC[S+](C)[O-])cccc2c1Nc1ccc(F)cc1C (centres undefined) | < 10 |
| O=C(O)c1cc2c(F)c(O)ccc2n1Cc1ccc(Cl)c(Cl)c1 | 19.3 |
| C[C@@](O)(C(=O)Nc1ccc(S(=O)(=O)c2ccc(NCCO)cc2)cc1Cl)C(F)(F)F | 27.4 |
| Cc1ccc(-n2c3c/c(=N\C(C)C)c(Nc4ccc(Cl)cc4)cc-3nc3ccccc32)cc1 | 135 |
| CC(=O)Oc1ccc2c(c1)cc(C(=O)O)n2Cc1ccc(Cl)c(Cl)c1 | 55.2 |
| CC(C)C(=O)N[C@@H](CS)C(=O)O | > 1000 |
| C[C@H]1C[C@@](O)(c2csc(Sc3ccc4c(c3)CC(=O)N4C)c2)CCO1 | < 10.9 |
| Cc1nc2c3c(ccn2c1CO)CCC(c1ccccc1)O3 (centres undefined) | < 10 |
| O=CN(O)C(CCc1cccnc1)CS(=O)(=O)N1CCC(Oc2ccc(Cl)cn2)CC1 (centres undefined) | < 10 |
| O=CN(O)C(CCc1cccnc1)CS(=O)(=O)N1CCN(c2ccc(Cl)cn2)CC1 (centres undefined) | < 10 |
| O=C(/C=C/c1c(C(=O)O)[nH]c2cc(Cl)cc(Cl)c12)Nc1ccccc1 | < 10 |
| CCOC(N)=O | > 1000 |
| N[C@@H](Cc1ccc(N(CCCl)CCCl)cc1)C(=O)O | 93.7 |
